Molecules are shown by their SMILES.

Here are results for three compounds from patent publication US20040121307A1, “Early detection of cellular differentiation using optophoresis” (Genoptix, Inc, priority 2002, published 2004).

Experiment [1] has as its system K562 Cells. The experiment can be described thus: Escape velocities of different cell types (1064 system, CYTOP coated coverslips). The experiment is classed as cell-based. The settings on record: 26 Hr. Taxol Treatment. From the text:
Certain of the data reported herein were generated with the following setup. Optical gradient fields were generated using a Michelson interferometer and either a 150 mW, 812 nm laser (812 system) or a 2.5 W, 1064 nm laser (1064 system). The 812 system used a 100× (1.25 NA) oil immersion lens to focus the fringe pattern and to visualize the sample. The 1064 system used a 20× objective to focus the fringes and a 60× objective to visualize the sample. In general the sample cell was a coated microscope slide and/or coverslip that was sealed with Vaseline. Coverslip spacers controlled the height of the cell at approximately 150 micrometers.
Escape velocities were measured using a gradient field generated by the 1064 system on CYTOP coated coverslips.

Experiment [2] deals with K562 Cells. The experiment can be described thus: Experiment 7: time and concentration dependence of paciltaxel, escape velocity. Format: cell-based. More on the design: escape velocity, Ave.: unit not given here. On the procedure:
In this experiment, the effect of time and concentration of paciltaxel was tested using K562 cells. Paciltaxel is a chemotherapeutic agent whose mechanism of action is the […] and the subsequent disruption of the cytoskeleton in cells. The timepoints tested were 4 hours, 23 hours, 30 hours and 47 hours. The concentrations of paciltaxel used in the experiment were 10 nM, 1 nM, 100 pM, and 10 pM. At each timepoint, 300 μl of cells were removed from each sample and centrifuged for 5 minutes at 5,000 rpm. The cells were then resuspended in PBS/1% BSA and trypan blue.

The subject of experiment [3] is activated caspases in U937 cells. Nature of the experiment: Homogeneous Caspases Assay, Fluorimetric. To be noted: 4 μg/ml camptothecin, 300 cells/well. The experiment is classed as cell-based. From the text:
Another assay that provides for even earlier detection of apoptotic events are assays that detect caspase activation. For example, the Homogeneous Caspases Assay, Fluorimetric (available from Roche, catalog no. 3005372), is able to detect caspase activation. […] The kit uses the substrate DEVD-Rhodamine 110 which is cleaved by activated caspases. When DEVD-Rhodamine 110 is cleaved, the released Rhodamine-110 molecule fluoresces upon excitation. By comparing the fluorescence from an apoptotic sample and an uninduced control, the increase in caspase activity can be quantified. While caspase assays do have the ability to detect relatively early apoptotic events, the assays require fluorometric enzyme substrates. Yet another experiment using U937 cells treated with 4 μg/ml camptothecin was carried out. In this experiment, the cells were subject to analysis using a caspase assay (Homogeneous Caspases Assay, Fluorimetric-available from Roche, catalog no. 3005372). The caspase assay is a fluorometric assay carried out in 96-well plates. […] Upon cleavage of the substrate by activated caspases, fluorescence of the released Rhodamine 110 is measured. […] FIG. 102 illustrates a graph of the relative fluorescence units (RFU) as a function of incubation times (hours) for the control (blank) as well as the camptothecin-treated cells.

Experiment [4] relates to U937 cells. The experiment can be described thus: Experiment 4: effect of camptothecin, escape velocity. To be noted: for escape velocity, Average: 0.04 μg/ml camptothecin. The experiment is classed as cell-based. Here is the method: The objective of this experiment is to test the effects of camptothecin on the escape velocities of U937 cells. Camptothecin inhibits DNA topoisomerase I and induces apoptosis. A control and three concentrations of camptothecin were tested: […]. After adding the camptothecin, the flasks are incubated at 37° C. 5% CO2.
At the timepoints of 4 hours and 6 hours, 200 μl of cells are spun for 5 minutes at 5000 rpm. The cells are then resuspended in […] PBS/1% BSA and […] trypan blue.
Optophoretic techniques have been investigated for their potential to detect the early onset of apoptosis in mammalian cells. U.S. patent application Ser. No. 10,240,611, for example, discloses multiple experiments in which U937 cells were treated with camptothecin and subsequently monitored Optophoretically using measured escape velocities. In one experiment, the escape velocity of the camptothecin-treated cells were measured at 4 and 6 hours after treatment. Noticeable changes in escape velocity were seen as early as 4 hours after treatment (see, e.g., FIG. 34). In that experiment, U937 cells were treated with 4 μg/ml of camptothecin and resuspended in PBS/1% BSA. Escape velocity measurements were taken after 4 and 6 hours. Table 18, reproduced below, includes the results of the escape velocity measurements for the test cells as well as the controls.

The test system of the next experiment is CEM/C2 cell line. To be noted: cell lines obtained from ATCC; cited from earlier work.
Experiment [5] relates to U937 cells. Nature of the experiment: ApoAlert Annexin V assay (FACS). Format: cell-based. The settings on record: 4 μg/ml camptothecin. Here is the method: Still other assays provide earlier indications of the onset of apoptosis. For example, commercially available assays, such as the ApoAlert Annexin V assay (available from CLONETECH) are able to detect changes in the plasma membrane by using a FITC conjugate of annexin V. The ApoAlert Annexin V assay is based on the observation that within about 6-10 hours after the onset of apoptosis, most cell types translocate phosphatidylserine (PS) from the inner face of the plasma membrane to the exterior of the cell surface. Once the PS is exposed on the exterior of the cell surface, the presence of PS can be detected using a FITC conjugate of annexin V. Fluorescence microscopy and flow cytometry can then be used to detect the binding of the FITC conjugate to the […]. While this assay does provide for relatively early detection of apoptotic events, the assay requires labeled annexin V markers as well as subsequent analysis by fluorescent microscopy or flow cytometry.
Another experiment using U937 cells treated with 4 μg/ml camptothecin was also carried out. In this experiment, however, the cells were subject to analysis using an annexin V assay. The assay was performed using the ApoAlert Annexin V Apoptosis Kit (available from Clonetech, catalog no. K2025-1). […] Significant annexin V binding is seen later in the 3 and 4 hour time points. […]

The subject of experiment [6] is wild type Staphylococcus aureus. Nature of the experiment: Bacterial screen for drug sensitivity, escape velocity, sensitive strain. The experiment is classed as cell-based. On the procedure:
(§1) In this experiment, escape velocity was measured over time in wild type Staphylococcus aureus and an Erythromycin-resistant strain. 5 μg/ml of Erythromycin was applied to both the wild type Staphylococcus aureus and an Erythromycin-resistant strain. Escape velocity measurements were taken at time zero, 30 minutes post-treatment, and 3 hours post-treatment. […] In this experiment, however, escape velocity measurements were made at time zero, 30 minutes post-treatment, and 1 hour post-treatment, and 2 hours post-treatment. A reduction in escape velocity of the Erythromycin-sensitive strain can be seen at 1 hour post-treatment.

Experiment [7] relates to Erythromycin-resistant strain. Nature of the experiment: Bacterial screen for drug sensitivity, escape velocity, resistant strain. The experiment is classed as cell-based, Staphylococcus aureus. To be noted: 5 μg/ml Erythromycin (FIG. 80). Here is the method: as §1

Take `CC(=O)O[C@H]1C(=O)[C@@]2(C)[C@H]([C@H](OC(=O)c3ccccc3)[C@]3(O)C[C@H](OC(=O)[C@H](O)[C@@H](NC(=O)c4ccccc4)c4ccccc4)C(C)=C1C3(C)C)[C@]1(OC(C)=O)CO[C@@H]1C[C@@H]2O` [paciltaxel]: the “Escape Velocity” value in the experiment with K562 Cells [1] is 8.2 +/− 0.4 um/sec. The “escape velocity, Ave.” value in the experiment with K562 Cells [2] (10 pM paciltaxel, 4 Hours) is 15.7; in the experiment with K562 Cells [2] (10 pM paciltaxel, 23 Hours) it was 15.7; in the experiment on K562 Cells [2] (10 pM paciltaxel, 30 Hours), 16.0; with K562 Cells [2] (10 pM paciltaxel, 47 Hours), 16.2; in the experiment on K562 Cells [2] (100 pM paciltaxel, 4 Hours), 15.9; with K562 Cells [2] (100 pM paciltaxel, 23 Hours), 17.1. For the same compound, the “escape velocity, Ave.” value with K562 Cells [2] (100 pM paciltaxel, 30 Hours) is 17.6; in the experiment with K562 Cells [2] (100 pM paciltaxel, 47 Hours) it was 17.0; in the experiment on K562 Cells [2] (1 nM paciltaxel, 4 Hours), 15.6; in the experiment on K562 Cells [2] (1 nM paciltaxel, 23 Hours), 16.9; in the experiment with K562 Cells [2] (1 nM paciltaxel, 30 Hours), 16.9; in the experiment on K562 Cells [2] (1 nM paciltaxel, 47 Hours), 16.7. Moreover, the “escape velocity, Ave.” value in the experiment on K562 Cells [2] (10 nM paciltaxel, 4 Hours) was determined as 15.3; in the experiment with K562 Cells [2] (10 nM paciltaxel, 23 Hours), 16.9; in the experiment with K562 Cells [2] (10 nM paciltaxel, 30 Hours), 17.4; in the experiment with K562 Cells [2] (10 nM paciltaxel, 47 Hours) it was 17.1. Moreover, the “optophoretic effect on cells” value with K562 Cells [2] (10 pM to 10 nM, 4 to 47 hours) is “both a time and dose dependent optophoretic effect”.

As to `CC[C@@]1(O)C(=O)OCc2c1cc1n(c2=O)Cc2cc3ccccc3nc2-1` [camptothecin], the “time after administration at which caspase activity is detected” value in experiment [3] was above 4 h. In addition, in the experiment on U937 cells [4] (40 ng/ml camptothecin, 4 and 6 hours (FIG. 34)), the “shift in escape velocity over time” value was “shift to lower escape velocities over time”. For the same compound, the “escape velocity, Average” value was determined as 10.16 μm/sec with U937 cells [4] (4 hours) and 9.52 μm/sec with U937 cells [4] (6 hours). The “fold less sensitive than parental CCRF-CEM” value in the experiment on CEM/C2 cell line is reported as 970 fold. Moreover, in the experiment with U937 cells [5], the “time at which the annexin V assay begins to detect the onset of apoptosis” value turned out to be 2 h.

On to `CC[C@H]1OC(=O)[C@H](C)[C@@H](O[C@H]2C[C@@](C)(OC)[C@@H](O)[C@H](C)O2)[C@H](C)[C@@H](O[C@@H]2O[C@H](C)C[C@H](N(C)C)[C@H]2O)[C@](C)(O)C[C@@H](C)C(=O)[C@H](C)[C@@H](O)[C@]1(C)O` [Erythromycin], for which the “time at which a reduction in escape velocity can be seen” value in experiment [6] (5 μg/ml Erythromycin (FIG. 81)) is 1 h. Further, the “change of escape velocity over time” value in experiment [6] (5 μg/ml Erythromycin, time zero, 30 minutes, 3 hours post-treatment (FIG. 80)) is reported as “escape velocity of the Erythromycin-sensitive strain decreases”. In addition, in experiment [7], the “escape velocity after treatment” value was “same escape velocity as the untreated Erythromycin-sensitive strain”.
